Results taken from publication PMC10416055, “Structural basis of bidirectional allostery across the heme in a cytochrome P450 enzyme” (The Journal of Biological Chemistry, 2023).

Test system: CYP121

Compound	absorbance (Soret peak) of ligand-bound CYP121
Clc1ccccc1C(c1ccccc1)(c1ccccc1)n1ccnc1 [clotrimazole]	424 nm
CC(=O)N1CCN(c2ccc(OCC3COC(Cn4ccnc4)(c4ccc(Cl)cc4Cl)O3)cc2)CC1 (centres unmarked) [ketoconazole]	421 nm
